PMC7747594, “Protease-activated receptor-2 ligands reveal orthosteric and allosteric mechanisms of receptor inhibition” (Communications Biology, 2020)
Where “and” joins values, the source holds several entries; their conditions need not be identical. Equal values may be shown once. Entries after “also recorded” stand apart in the source; their conditions may differ.

Assays:
Type in all cases: cell-based
hPAR2 [1] = target: T1, hPAR2 (Homo sapiens, UniProt P55085); test: Ca^2+ flux assay, agonist mode, 1321N1-hPAR2 cells; parameters: Ca^2+ mobilisation tested as agonist, Fig 1c source data / Ca2+ response (Fig 2c), individual replicate values: unit not given here; details: for Ca2+ response (Fig 2c), individual replicate values: hPAR2; for Ca^2+ mobilisation tested as agonist, Fig 1c source data: log[compound], individual data points
T1 sequence (P55085 26-397): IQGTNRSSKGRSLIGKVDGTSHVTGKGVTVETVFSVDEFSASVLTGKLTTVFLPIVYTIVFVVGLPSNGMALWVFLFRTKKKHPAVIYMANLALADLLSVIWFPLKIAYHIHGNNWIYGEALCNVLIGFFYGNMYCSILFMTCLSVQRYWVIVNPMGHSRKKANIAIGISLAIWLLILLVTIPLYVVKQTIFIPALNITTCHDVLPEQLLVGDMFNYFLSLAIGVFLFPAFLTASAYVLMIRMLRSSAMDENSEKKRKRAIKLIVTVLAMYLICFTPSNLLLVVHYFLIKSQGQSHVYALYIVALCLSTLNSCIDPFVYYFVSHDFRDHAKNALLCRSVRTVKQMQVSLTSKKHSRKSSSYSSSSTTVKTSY
Procedure: (§1) Cells were loaded with Fluo-8 NW calcium dye (AAT Bioquest) for 30 min at 37 °C before compounds in Hank’s balanced salt solution (HBSS, ThermoFisher Scientific) with 20 mM HEPES (ThermoFisher Scientific), 0.1% bovine serum albumin (BSA, Sigma) and 0.5% DMSO were added and simultaneously evaluated for changes in intracellular [Ca^2+] using FLIPR TETRA (Molecular Devices) to detect agonism. For each concentration, the difference between the maximum peak Ca^2+ response and baseline response is reported. […] Antagonism experiments were also carried out on 1321N1-PAR2[WT], 1321N1-PAR2[F154A], and 1321N1-PAR2[G157C] as described. Experiments with trypsin in 1321N1-hPAR2 cells were performed in the presence of 1 µM Vorapaxar (Chemtronica) to remove any interference of PAR1 activity. […] Antagonism experiments for CHO-hPAR2 and HT-29 cells were performed in 96-well plates at 30,000 cells/well. Cells were loaded with Fluo-3 AM calcium dye (Sigma-Aldrich) for 60 min at 37 °C in HBSS with 1% FBS, 0.2% pluronic acid, 20 mM HEPES and 2.5 mM probenecid prior to the addition of antagonist. The antagonist was pre-incubated for 60 min at 37 °C followed by the addition of bovine trypsin (30 nM) at EC80. Intracellular [Ca^2+] flux was measured using FLIPR TETRA (Molecular Devices) and the difference between the maximum peak Ca^2+ response and baseline response is reported.
(§2) Binding data were analysed using the One site – Fit Ki model in GraphPad Prism 8 (GraphPad Software) to determine binding affinity. Pharmacology in vitro potency data was analysed with a 4-parameter logistic fit using the equation y = Bottom + (Top − Bottom)/[…] where y is the response, x is the 10-logarithm of the drug concentration, Bottom is no response and Top is full response in GraphPad Prism 8 or Genedata Screener (Genedata). pEC50 and pIC50 data are presented as mean ± standard error of the mean (s.e.m.) derived from the number of independent experiments stated. Schild slope analysis was calculated using Graphpad Prism 8 Gaddum/Schild EC50 global fitting (shared model parameters between all data sets) competitive model. […] Schild slope quantifies the shifts in agonist response in the presence of antagonist, a Schild slope of 1 indicates the antagonist is competitive and extra-sum-of-squares F-test (p < 0.05) was used to compare the calculated Schild slope against a hypothetical Schild slope of 1. […] The relative activity was calculated using (EmaxEC50’)/(Emax’EC50) with the Hill slope help constant at 1. EC50’ and Emax’ denote the EC50 and Emax in the absence of allosteric modulator, while EC50 and Emax denote those measured in the presence of allosteric modulator. When the Hill slope = 1, the relative activity plot approaches an asymptote corresponding to the estimate of the γ value.

hPAR2 [2] = target: T1, hPAR2; test: IP1 HTRF assay, inhibition of SLIGRL-NH2 in 1321N1-hPAR2 cells; details: for IC50: SLIGRL-NH2, 1321N1-hPAR2 cells, mean ± s.e.m., read-out: IP1 (hPAR2) pIC50 (converted)
Procedure: Inhibition of PAR2-induced inositol-1-phosphate (IP1) production was measured in 1321N1-hPAR2 cells using IP-One Gq HTRF assay kit (Cisbio). […] Next, EC80 of SLIGRL-NH2 (70 µM) supplemented with 50 mM LiCl was added and incubated for 60 min at 37 °C. Detection of IP1 production was performed according to the manufacturer’s protocol and HTRF was measured using PHERAstar (BMG LabTech). Data were normalised to [IP1] using a standard curve.
as §2

hPAR2 [3] = target: T1, hPAR2; test: Ca^2+ flux assay (FLIPR), inhibition of SLIGRL-NH2 activation in 1321N1-hPAR2 cells
Procedure: as §1, §2

rat PAR2 = target: T2, rat PAR2 (Rattus norvegicus, UniProt Q63645); test: Ca^2+ flux assay, inhibition of SLIGRL-NH2 activation in rat KNRK cells; details: SLIGRL-NH2, rat PAR2 in KNRK cells; mean ± s.e.m.; read-out: Ca^2+ flux (rPAR2) pIC50 (converted)
T2 construct: a rat KNRK cell line with endogenous expression of rat PAR2; host or cells: rat KNRK cells
T2 sequence (Q63645 26-397): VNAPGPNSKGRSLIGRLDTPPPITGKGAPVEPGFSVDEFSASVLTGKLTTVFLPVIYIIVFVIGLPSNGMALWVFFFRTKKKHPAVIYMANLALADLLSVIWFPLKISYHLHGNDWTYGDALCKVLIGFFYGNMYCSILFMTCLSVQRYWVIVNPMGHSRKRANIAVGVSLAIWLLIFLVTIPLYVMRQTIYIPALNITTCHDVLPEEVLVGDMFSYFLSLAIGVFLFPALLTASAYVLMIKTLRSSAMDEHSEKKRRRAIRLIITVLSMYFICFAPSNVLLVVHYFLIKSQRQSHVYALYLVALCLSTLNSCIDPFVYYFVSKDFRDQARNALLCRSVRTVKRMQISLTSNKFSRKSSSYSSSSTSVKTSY

hPAR2 [4] = target: T1, hPAR2; test: Ca^2+ flux assay, inhibition of trypsin activation in 1321N1-hPAR2 cells (with 1 µM Vorapaxar); details: for shape of inhibition of trypsin-induced Ca^2+ mobilisation: 1321N1-hPAR2 cells, 1 µM Vorapaxar; for IC50: trypsin

Structure (SMILES): CNC(=O)[C@H]1CC[C@@H](NC(=O)[C@H](CC2CCCCC2)NC(=O)c2cn(Cc3ccccc3)nn2)c2ccccc21 [AZ2429]
- higher potency than SLIGKV-NH2, Ca^2+ signalling (hPAR2 [1]; 1321N1-hPAR2): 7 fold
- lower potency than GB110, Ca^2+ signalling (hPAR2 [1]; 1321N1-hPAR2): 6 fold
- EC50 (hPAR2 [1]; 1321N1-hPAR2 cells, mean ± s.e.m., read-out: Ca^2+ flux pEC50 (converted)): 166 nM
- Ca2+ response (Fig 2c), individual replicate values (hPAR2 [1]; [compound],M -4.30103): 115.742 and 78.7868 and 73.0001 and 99.0117
- Ca2+ response (Fig 2c), individual replicate values (hPAR2 [1]; [compound],M -4.77815): 114.252 and 90.1883 and 78.2712 and 103.481
- Ca2+ response (Fig 2c), individual replicate values (hPAR2 [1]; [compound],M -5.25527): 97.9804 and 100.329 and 107.319 and 71.9688
- Ca2+ response (Fig 2c), individual replicate values (hPAR2 [1]; [compound],M -5.73239): 87.2091 and 90.6467 and 67.5571 and 89.0425
- Ca2+ response (Fig 2c), individual replicate values (hPAR2 [1]; [compound],M -6.20952): 54.0357 and 69.6197 and 81.4796 and 66.5831
- Ca2+ response (Fig 2c), individual replicate values (hPAR2 [1]; [compound],M -6.68664): 45.3269 and 46.8166 and 52.6033 and 41.6601
- Ca2+ response (Fig 2c), individual replicate values (hPAR2 [1]; [compound],M -7.16376): 19.1435 and 34.6702 and 20.5758 and 32.3784
- Ca2+ response (Fig 2c), individual replicate values (hPAR2 [1]; [compound],M -7.64088): 5.851 and 8.888 and 9.461 and 7.513
- Ca2+ response (Fig 2c), individual replicate values (hPAR2 [1]; [compound],M -8.118): -2.628 and 1.21 and 2.414 and 2.5854
- Ca2+ response (Fig 2c), individual replicate values (hPAR2 [1]; [compound],M -8.59512): -2.8 and -3.316 and -1.4252 and -1.712

Structure (SMILES): C[C@@H](C1CCCCC1)n1c(-c2cc3c(cc2Br)OCO3)nc2cc(C(=O)Nc3ccncc3)ccc21 [AZ2623]
- IC50 (hPAR2 [2]): 81.3 nM
- IC50 (hPAR2 [3]; SLIGRL-NH2, 1321N1-hPAR2 cells, mean ± s.e.m., read-out: Ca^2+ flux (hPAR2) pIC50 (converted)): 5.01 nM
- IC50 (rat PAR2): 5.01 nM
- shape of inhibition of trypsin-induced Ca^2+ mobilisation (hPAR2 [4]): biphasic inhibition curves

Structure (SMILES): C[C@@H](C1CCCCC1)n1c(-c2cc3c(cc2Br)OCO3)nc2cc(C(=O)Nc3ccc(C#N)cc3)ccc21 [AZ3451]
- IC50 (hPAR2 [2]): 22.4 nM
- remaining activity at 0.1001 µM (hPAR2 [2]; log[compound], M -6.99957, individual data points, read-out: SLIGRL-NH2 IP1 formation, antagonist response, Fig 1d source data): 15.9%
- remaining activity at 0.03164 µM (hPAR2 [2]; log[compound], M -7.49976, individual data points, read-out: SLIGRL-NH2 IP1 formation, antagonist response, Fig 1d source data): 43.6%
- remaining activity at 0.01001 µM (hPAR2 [2]; log[compound], M -7.99957, individual data points, read-out: SLIGRL-NH2 IP1 formation, antagonist response, Fig 1d source data): 71.9%
- remaining activity at 0.003165 µM (hPAR2 [2]; log[compound], M -8.49963, individual data points, read-out: SLIGRL-NH2 IP1 formation, antagonist response, Fig 1d source data): 100%
- IC50 (hPAR2 [3]; Ca^2+ assay, earlier manuscript version quoted by reviewer, read-out: IC50): 2.8 nM
- remaining activity at 0.001319 µM (hPAR2 [3]; log[compound], M -8.87976, individual data points, read-out: SLIGRL-NH2 Ca^2+ mobilisation, antagonist response, Fig 1c source data): 77.4%
- IC50 (rat PAR2): 3.16 nM
- shape of inhibition of trypsin-induced Ca^2+ mobilisation (hPAR2 [4]): biphasic inhibition curves
- remaining activity at 0.03 µM (hPAR2 [4]; log[compound], M -7.52288, individual data points, read-out: trypsin Ca^2+ mobilisation, antagonist response, Fig 1g source data): 71.7%
- remaining activity at 0.01 µM (hPAR2 [4]; log[compound], M -8, individual data points, read-out: trypsin Ca^2+ mobilisation, antagonist response, Fig 1g source data): 68%
- remaining activity at 0.003 µM (hPAR2 [4]; log[compound], M -8.52288, individual data points, read-out: trypsin Ca^2+ mobilisation, antagonist response, Fig 1g source data): 73%
- remaining activity at 0.001 µM (hPAR2 [4]; log[compound], M -9, individual data points, read-out: trypsin Ca^2+ mobilisation, antagonist response, Fig 1g source data): 78.8%
- remaining activity at 0.0003 µM (hPAR2 [4]; log[compound], M -9.52288, individual data points, read-out: trypsin Ca^2+ mobilisation, antagonist response, Fig 1g source data): 82.9%
- remaining activity at 0.0001 µM (hPAR2 [4]; log[compound], M -10, individual data points, read-out: trypsin Ca^2+ mobilisation, antagonist response, Fig 1g source data): 99.7%
- IC50 (hPAR2 [4]; read-out: inhibition of trypsin activation of PAR2 signalling, biphasic, pIC50 first phase (converted)): 3.16 nM
- IC50 (hPAR2 [4]; read-out: inhibition of trypsin activation of PAR2 signalling, biphasic, pIC50 second phase (converted)): 1000 nM
- Ca^2+ mobilisation tested as agonist, Fig 1c source data (hPAR2 [1]; M -4.38018): 2.619 and -1.693 and 12.8149 and 8.844 and 5.039
- Ca^2+ mobilisation tested as agonist, Fig 1c source data (hPAR2 [1]; M -4.88008): 6.334 and 5.142 and -5.002 and 2.343 and 2.365
- Ca^2+ mobilisation tested as agonist, Fig 1c source data (hPAR2 [1]; M -5.38018): 7.004 and 3.992 and 6.097 and 3.93 and 1.406
- Ca^2+ mobilisation tested as agonist, Fig 1c source data (hPAR2 [1]; M -5.88008): 0.5481 and 1.501 and 3.614 and 4.082 and 2.434
- Ca^2+ mobilisation tested as agonist, Fig 1c source data (hPAR2 [1]; M -6.38007): 1.705 and 0.03194 and -3.0303 and 2.1164 and 2.6397
- Ca^2+ mobilisation tested as agonist, Fig 1c source data (hPAR2 [1]; M -6.88008): 1.523 and 0.2236 and 5.2939 and 1.134 and 0.3771
- Ca^2+ mobilisation tested as agonist, Fig 1c source data (hPAR2 [1]; M -7.37997): 1.949 and 4.9505 and 1.716 and -0.3779 and 3.12
- Ca^2+ mobilisation tested as agonist, Fig 1c source data (hPAR2 [1]; M -7.88008): 3.289 and 0.09582 and 3.3954 and 1.814 and 4.697
- Ca^2+ mobilisation tested as agonist, Fig 1c source data (hPAR2 [1]; M -8.37986): 0.7917 and -0.8623 and -2.957 and 0.7559 and 2.503
- Ca^2+ mobilisation tested as agonist, Fig 1c source data (hPAR2 [1]; M -8.87976): 1.34 and -1.757 and 1.643 and 4.989 and 1.8855
- agonist activity (tested as agonists) (hPAR2 [1]; Ca^2+ assay and other signalling assays): no effect; also recorded: no agonist activity
